Laboratory results reported in article PMC10306110 (Cell, 2023).

What was measured:
morphine-treated mice = test: Naloxone-precipitated opioid withdrawal assay; format: in vivo, mouse; conditions: 10 mg/kg i.p.
C56BL/6J mice = test: Elevated plus-maze assay; format: in vivo, mouse; conditions: ‘8219 and ‘8090 10 mg/kg/day for 10 days; paroxetine 10 mg/kg single
SERT [1] = target: T1, SERT (Rattus norvegicus, UniProt P31652); conditions: cited from earlier work
SERT-S277C = SERT-S277C (Rattus norvegicus, UniProt P31652, C109A/C15A/C21A/C357I/C622A/S277C); test: Cys277 accessibility; format: biochemical
[2] = system: wild-type (WT) and VMAT2 heterozygous (HET) mice; test: Tail suspension in VMAT2 mice; format: in vivo, mouse; conditions: for anti-depressant-like effects 24 h post-injection: VMAT2 HET, 2 mg/kg ‘8090, 0.5 mg/kg ‘8219, 20 mg/kg Flx, 30 mg/kg Ibo; for immobility times: acute (30 min), 20 mg/kg Flx versus vehicle, 30 mg/kg Ibo versus 1 mg/kg ‘8090 and 0.5 mg/kg ‘8219
[3] = system: learned helpless C57BL/6J mice; test: Elevated zero maze; format: in vivo, mouse; conditions: for locomotion in the zero maze versus vehicle: 5 mg/kg ‘8090, 40 mg/kg Ibo
[4] = system: learned helpless C57BL/6J mice; test: Learned helplessness: tail suspension; format: in vivo, mouse; conditions: for immobility upon treatment-withdrawal / anti-depressant-like activities in tail suspension: 40 mg/kg Ibo; for immobility upon treatment-withdrawal: 10 mg/kg Flx; for anti-depressant-like activities in tail suspension: 10 mg/kg Flx daily
[5] = system: learned helpless C57BL/6J mice; test: Learned helplessness: sucrose preference; format: in vivo, mouse; conditions: for overall sucrose preference at testing: 40 mg/kg Ibo
[6] = system: learned helpless C57BL/6J mice; test: Learned helplessness: shock escape; format: in vivo, mouse; conditions: for shock-escape performance: 40 mg/kg Ibo, 10 mg/kg Flx
SERT-Y107C [7] = target: T2, SERT-Y107C (Rattus norvegicus, UniProt P31652, C109A/Y107C); conditions: cited from earlier work
[8] = system: learned helpless C57BL/6J mice; test: Elevated 8-arm radial maze; format: in vivo, mouse
rSERT = rSERT (Rattus norvegicus, UniProt P31652); test: [3H]5-HT transport into RBL cells or SERT-transfected HeLa cells; format: cell-based
SERT [9] = target: T1, SERT; test: Efflux of accumulated [3H]5-HT induced by extracellular compounds; format: cell-based; conditions: saturating concentrations
human DAT = human DAT (Homo sapiens, UniProt Q01959); test: Neurotransmitter transporter uptake assay, DAT; conditions: read-out: Ki against DAT; cell-based functional assay
Sequence of human DAT (Q01959 whole entry): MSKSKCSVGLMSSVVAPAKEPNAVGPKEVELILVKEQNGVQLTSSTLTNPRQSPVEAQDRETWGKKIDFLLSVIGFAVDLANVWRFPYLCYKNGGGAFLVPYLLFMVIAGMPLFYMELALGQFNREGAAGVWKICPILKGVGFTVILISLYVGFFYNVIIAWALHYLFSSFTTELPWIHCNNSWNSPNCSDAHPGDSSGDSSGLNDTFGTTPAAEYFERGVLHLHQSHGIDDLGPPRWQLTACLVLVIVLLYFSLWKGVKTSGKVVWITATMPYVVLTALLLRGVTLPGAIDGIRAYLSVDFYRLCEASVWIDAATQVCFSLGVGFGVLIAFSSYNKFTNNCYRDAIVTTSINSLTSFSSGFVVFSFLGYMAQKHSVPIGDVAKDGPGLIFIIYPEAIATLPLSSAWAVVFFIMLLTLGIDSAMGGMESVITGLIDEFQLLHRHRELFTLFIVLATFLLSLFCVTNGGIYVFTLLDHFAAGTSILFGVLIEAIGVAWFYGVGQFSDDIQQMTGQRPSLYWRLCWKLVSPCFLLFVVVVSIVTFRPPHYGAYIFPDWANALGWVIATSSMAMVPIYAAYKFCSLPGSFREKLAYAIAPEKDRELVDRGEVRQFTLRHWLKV

5-HT1A receptor = target: T3, 5-HT1A receptor (Homo sapiens, UniProt P08908); test: GloSensor cAMP Gi agonist activity assay; format: cell-based; conditions: concentration-response
T3 sequence (P08908 1-422): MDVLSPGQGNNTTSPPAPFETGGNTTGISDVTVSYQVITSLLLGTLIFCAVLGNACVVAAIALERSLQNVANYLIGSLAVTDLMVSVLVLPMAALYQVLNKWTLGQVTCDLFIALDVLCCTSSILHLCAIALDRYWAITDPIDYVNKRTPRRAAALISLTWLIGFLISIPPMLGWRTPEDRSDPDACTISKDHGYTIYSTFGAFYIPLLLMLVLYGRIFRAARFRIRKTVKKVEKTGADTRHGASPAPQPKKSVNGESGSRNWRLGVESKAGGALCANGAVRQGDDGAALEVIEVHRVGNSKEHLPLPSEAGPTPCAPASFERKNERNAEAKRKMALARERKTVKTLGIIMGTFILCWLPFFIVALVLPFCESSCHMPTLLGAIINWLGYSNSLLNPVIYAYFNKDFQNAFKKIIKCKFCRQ

SERT [10] = target: T1, SERT; test: [125I]β-CIT displacement binding in membranes from SERT-transfected HeLa cells
[11] = system: learned helpless C57BL/6J mice; test: Sensitivity to foot-shock; format: in vivo, mouse; conditions: days 13 and 22
[12] = system: learned helpless C57BL/6J mice; test: Open field motor activity; format: in vivo, mouse; conditions: day 12; 2 or 5 mg/kg ‘8090, 5 mg/kg ‘8219; 40 mg/kg Ibo, 10 mg/kg Flx
[13] = Pharmacokinetics, brain exposure after i.p. dosing; format: in vivo; conditions: 10 mg/Kg intraperitoneal (i.p.), mouse
SERT-Y107C [14] = target: T2, SERT-Y107C; test: Cys107 accessibility; format: cell-based; conditions: saturating concentration (10x KD)
human NET = human NET (Homo sapiens, UniProt P23975); test: Neurotransmitter transporter uptake assay, NET; conditions: read-out: Ki against NET; cell-based functional assay
Sequence of human NET (P23975 whole entry): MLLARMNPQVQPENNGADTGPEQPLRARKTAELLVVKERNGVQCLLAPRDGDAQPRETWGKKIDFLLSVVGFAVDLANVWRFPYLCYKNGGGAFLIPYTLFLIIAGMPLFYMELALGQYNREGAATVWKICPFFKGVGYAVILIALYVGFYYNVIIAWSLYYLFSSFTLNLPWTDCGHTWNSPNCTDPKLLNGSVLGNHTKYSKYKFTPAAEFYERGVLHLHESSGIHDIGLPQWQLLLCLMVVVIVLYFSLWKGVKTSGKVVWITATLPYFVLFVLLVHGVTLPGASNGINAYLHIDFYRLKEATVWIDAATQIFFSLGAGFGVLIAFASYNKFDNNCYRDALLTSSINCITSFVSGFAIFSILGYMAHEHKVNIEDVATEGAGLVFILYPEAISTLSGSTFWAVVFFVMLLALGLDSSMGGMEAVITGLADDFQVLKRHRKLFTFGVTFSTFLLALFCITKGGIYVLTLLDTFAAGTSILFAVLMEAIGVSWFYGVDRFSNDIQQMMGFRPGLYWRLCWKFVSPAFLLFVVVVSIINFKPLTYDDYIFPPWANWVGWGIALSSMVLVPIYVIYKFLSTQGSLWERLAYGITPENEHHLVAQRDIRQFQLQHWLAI

hSERT = hSERT (Homo sapiens, UniProt P31645); format: cell-based
Sequence of hSERT (P31645 whole entry): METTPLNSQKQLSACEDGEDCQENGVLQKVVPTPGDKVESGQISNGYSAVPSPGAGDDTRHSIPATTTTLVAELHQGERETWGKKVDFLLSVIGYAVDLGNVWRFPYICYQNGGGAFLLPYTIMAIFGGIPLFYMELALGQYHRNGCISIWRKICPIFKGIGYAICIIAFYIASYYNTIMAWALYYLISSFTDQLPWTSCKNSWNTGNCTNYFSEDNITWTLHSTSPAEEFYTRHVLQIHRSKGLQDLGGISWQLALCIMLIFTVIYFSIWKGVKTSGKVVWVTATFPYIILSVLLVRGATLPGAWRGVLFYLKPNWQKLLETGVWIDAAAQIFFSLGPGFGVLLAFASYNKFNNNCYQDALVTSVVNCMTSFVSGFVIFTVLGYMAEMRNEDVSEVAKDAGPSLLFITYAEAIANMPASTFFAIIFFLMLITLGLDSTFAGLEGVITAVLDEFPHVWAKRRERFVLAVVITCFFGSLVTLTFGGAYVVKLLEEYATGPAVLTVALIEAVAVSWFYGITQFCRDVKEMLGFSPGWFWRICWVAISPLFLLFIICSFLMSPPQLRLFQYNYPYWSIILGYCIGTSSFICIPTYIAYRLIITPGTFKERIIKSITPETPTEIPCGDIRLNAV

[15] = presence of Na+, cocaine 10 µM, ibogaine 10 µM, ‘8219 0.05 µM, ‘8090 0.15 µM

For `Fc1ccc([C@@H]2CCNC[C@H]2COc2ccc3c(c2)OCO3)cc1` [paroxetine, reference compound], the “naloxone-precipitated morphine withdrawal symptoms” value (morphine-treated mice) was “significantly reduced naloxone-precipitated jumps and rearings” and the “open arm entries and time compared to vehicle” value (C56BL/6J mice) was “spent more time exploring the open arms”.

For ibogaine, the “effect of Cl− on binding to SERT” value (SERT [1]) is listed as “independent of Cl^−”, the “effect of Na+ on binding to SERT” value (SERT [1]) is listed as “inhibited by Na^+” and the “Cys277 reactivity (cytoplasmic pathway) versus control” value (SERT-S277C; [15]) is listed as “dramatically increased Cys277 reactivity”. The “anti-depressant-like effects 24 h post-injection” value [2] was “effects were lost”, the immobility times ([2]; WT) was “increased” and the “locomotion in the zero maze versus vehicle” value [3] was “decreased”. For the same compound, the immobility upon treatment-withdrawal [4] was “immobility was enhanced”, the “anti-depressant-like activities in tail suspension” value [4] was “transient” and the “overall sucrose preference at testing” value ([5]; 10 mg/kg Flx daily) was “increased overall sucrose preference”. For the same compound, the shock-escape performance [6] was “improve shock-escape performance”, the “Cys107 accessibility (extracellular pathway)” value (SERT-Y107C [7]) was “decreases its accessibility” and the “locomotion in the radial maze” value ([8]; 40 mg/kg Ibo) was “suppressed locomotion”.

In the case of `COC(=O)[C@H]1[C@@H](OC(=O)c2ccccc2)C[C@@H]2CC[C@H]1N2C` [cocaine, reference compound], the “Cys277 reactivity (cytoplasmic pathway) versus control” value (SERT-S277C; [15]) is listed as “decreased Cys277 reactivity” and the “Cys107 accessibility (extracellular pathway)” value (SERT-Y107C [7]) is listed as “renders it more accessible”.

In the case of `Fc1ccc(-c2csc(N3CCNCC3)n2)cc1` [‘8090], the “Vmax for 5-HT transport in presence of inhibitor” value (rSERT; 0.15 μM ‘8219, 0.7 μM ‘8090, HeLa cells transfected with rSERT, control 1.7 ± 0.25) is reported as 0.69 ± 0.1 pmol/m/well, the “type of inhibition of 5-HT influx” value (rSERT; decreased Vmax with minimal effect on KM) is reported as “non-competitive inhibition” and the “Cys277 reactivity (cytoplasmic pathway) versus control” value (SERT-S277C; absence of Na+ (replaced by NMDG), 2 µM) is reported as “had no influence on the pathway”. For the same compound, the “Cys277 reactivity (cytoplasmic pathway) versus control” value (SERT-S277C; [15]) was “decreased reactivity slightly”, the “anti-depressant-like effects 24 h post-injection” value [2] was “maintained” and the “immobility 24 h post-injection” value ([2]; WT, 1 mg/kg compared to 0.5 mg/kg) was “significantly decreased immobility”. For the same compound, the “SERT substrate activity (stimulation of [3H]5-HT efflux)” value (SERT [9]) was “not SERT substrates”, the Ki (human DAT) was 6.6 µM and the “Gi agonist activity at 5-HT1A relative to reference agonist 5-HT” value (5-HT1A receptor) was “about 6%”. For the same compound, the Ki (SERT [10]; displacement of [125I]β-CIT) was 0.014 µM, the “increase of inhibitory potency (binding) by Na+” value (SERT [10]; displacement of [125I]β-CIT) was 15 fold and the Kd (SERT [10]; read-out: KD values used for kon calculation) was 0.015 µM. For the same compound, the reactivity to foot-shock [11] was “do not affect reactivity to foot-shock”, the “locomotion in the open field” value [12] was “no effects were observed” and the “locomotion in the zero maze versus vehicle” value [3] was “increased”. For the same compound, the “time in and entry into the open areas versus vehicle” value ([3]; 2 or 5 mg/kg ‘8090, 5 mg/kg ‘8219, day 6) was “spent more time and entered the open areas more readily than vehicle-treated mice”, the “immobility times on days 0, 1, and 3” value ([4]; 2 or 5 mg/kg ‘8090, 5 mg/kg ‘8219 daily) was “reduced” and the “sucrose preference compared to vehicle” value ([5]; daily i.p. dosing, 2 or 5 mg/kg ‘8090, 5 mg/kg ‘8219) was “significant preference for sucrose compared to vehicle”. The “shock-escape performance on day 23 versus controls” value ([6]; 1 mg/kg ‘8090 group) was “higher”, the “shock-escape performance (numbers of escapes) on days 10 and 23” value ([6]; 5 mg/kg) was “increased over vehicle” and the “brain Cmax” value [13] was 12000 ng/g. For the same compound, the half-life ([13]; brain) was 44.3 min, the “open arm entries and time compared to vehicle” value (C56BL/6J mice) was “increased the percentage of entries into and the time spent exploring the open arms” and the “Cys107 reactivity (extracellular pathway)” value (SERT-Y107C [14]) was “decreased Cys107 reactivity”. For the same compound, the Ki (human NET) was 10 µM, the dissociation rate (hSERT; HEK-293 cells expressing hSERT pre-incubated with 50 nM ‘8219 or 75 nM ‘8090, washout) was 1.82 ± 0.09 × 10^−3 s^−1 and the “half time for equilibration of binding” value (hSERT; at concentrations giving half-maximal inhibition, calculated) was “less than 7 minutes”. For the same compound, the “arm entries before a second repeated entry versus vehicle” value ([8]; 2 mg/kg ‘8090 or 5 mg/kg ‘8219, day 9) was “entered more arms before making a second repeated entry”.

For `CNCCC(Oc1ccc(C(F)(F)F)cc1)c1ccccc1` (stereo not shown) [Flx, fluoxetine], the “anti-depressant-like effects 24 h post-injection” value [2] was “maintained”, the immobility times ([2]; WT) was “increased” and the reactivity to foot-shock [11] was “do not affect reactivity to foot-shock”. For the same compound, the “locomotion in the open field” value [12] was “No locomotor differences were found”, the “open area time compared to Ibo and vehicle controls” value ([3]; 10 mg/kg Flx) was “increased open area time” and the immobility upon treatment-withdrawal [4] was “immobility was enhanced”. The “anti-depressant-like activities in tail suspension” value [4] was “transient”, the “sucrose preference over vehicle controls on day −2” value ([5]; 10 mg/kg Flx daily) was “enhanced preference for sucrose” and the “overall sucrose preference at testing” value ([5]; 10 mg/kg Flx daily) was “increased overall sucrose preference”. For the same compound, the shock-escape performance [6] was “improve shock-escape performance” and the “arm entries before repeating a first entry compared to Ibo and vehicle mice” value ([8]; 10 mg/kg Flx, ANCOVA) was “entered more arms before repeating a first entry”.
